The record followed here is ChEMBL document CHEMBL1143351 (J Med Chem, 2009).

In experiment [1] the target is Nitric oxide synthase 1 (Rattus norvegicus, UniProt P29476).
Description: Inhibition of rat recombinant nNOS expressed in Escherichia coli by hemoglobin capture assay
The target of experiment [2] is T1, Nitric oxide synthase 3 (Bos taurus, UniProt P29473).
T1 sequence (P29473 whole entry): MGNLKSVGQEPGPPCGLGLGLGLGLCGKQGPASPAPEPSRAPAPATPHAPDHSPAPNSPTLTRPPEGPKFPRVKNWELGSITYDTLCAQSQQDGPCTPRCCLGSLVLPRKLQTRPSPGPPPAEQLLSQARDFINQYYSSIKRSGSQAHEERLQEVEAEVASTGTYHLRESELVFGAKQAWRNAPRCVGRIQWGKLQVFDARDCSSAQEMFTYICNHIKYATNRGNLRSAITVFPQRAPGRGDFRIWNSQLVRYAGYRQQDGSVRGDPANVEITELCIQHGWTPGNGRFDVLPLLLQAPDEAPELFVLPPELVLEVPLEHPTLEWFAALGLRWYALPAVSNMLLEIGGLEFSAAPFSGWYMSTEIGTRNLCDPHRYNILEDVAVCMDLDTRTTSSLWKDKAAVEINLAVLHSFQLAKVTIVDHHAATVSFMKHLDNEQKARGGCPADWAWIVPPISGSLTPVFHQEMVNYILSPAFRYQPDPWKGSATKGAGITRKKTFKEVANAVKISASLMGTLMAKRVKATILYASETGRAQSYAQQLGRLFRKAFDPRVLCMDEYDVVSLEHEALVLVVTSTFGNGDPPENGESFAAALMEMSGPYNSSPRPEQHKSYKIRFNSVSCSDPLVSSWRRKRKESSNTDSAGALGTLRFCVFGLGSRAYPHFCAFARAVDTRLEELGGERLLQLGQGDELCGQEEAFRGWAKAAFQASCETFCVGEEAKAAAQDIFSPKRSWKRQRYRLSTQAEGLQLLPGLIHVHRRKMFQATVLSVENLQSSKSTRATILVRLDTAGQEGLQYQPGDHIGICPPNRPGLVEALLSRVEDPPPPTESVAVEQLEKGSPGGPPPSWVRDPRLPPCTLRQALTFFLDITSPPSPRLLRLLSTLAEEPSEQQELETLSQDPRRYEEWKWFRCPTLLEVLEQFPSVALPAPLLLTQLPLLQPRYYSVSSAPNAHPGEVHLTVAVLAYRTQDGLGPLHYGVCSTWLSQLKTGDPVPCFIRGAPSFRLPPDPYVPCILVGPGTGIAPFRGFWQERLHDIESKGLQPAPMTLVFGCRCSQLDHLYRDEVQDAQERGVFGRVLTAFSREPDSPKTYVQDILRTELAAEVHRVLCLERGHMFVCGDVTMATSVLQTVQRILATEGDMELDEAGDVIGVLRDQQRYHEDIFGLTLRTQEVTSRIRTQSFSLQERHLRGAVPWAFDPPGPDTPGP
Description: Inhibition of bovine recombinant eNOS expressed in Escherichia coli by hemoglobin capture assay

Experiment [3] concerns the target T2, Nitric oxide synthase, inducible (Mus musculus, UniProt P29477).
T2 sequence (P29477 whole entry): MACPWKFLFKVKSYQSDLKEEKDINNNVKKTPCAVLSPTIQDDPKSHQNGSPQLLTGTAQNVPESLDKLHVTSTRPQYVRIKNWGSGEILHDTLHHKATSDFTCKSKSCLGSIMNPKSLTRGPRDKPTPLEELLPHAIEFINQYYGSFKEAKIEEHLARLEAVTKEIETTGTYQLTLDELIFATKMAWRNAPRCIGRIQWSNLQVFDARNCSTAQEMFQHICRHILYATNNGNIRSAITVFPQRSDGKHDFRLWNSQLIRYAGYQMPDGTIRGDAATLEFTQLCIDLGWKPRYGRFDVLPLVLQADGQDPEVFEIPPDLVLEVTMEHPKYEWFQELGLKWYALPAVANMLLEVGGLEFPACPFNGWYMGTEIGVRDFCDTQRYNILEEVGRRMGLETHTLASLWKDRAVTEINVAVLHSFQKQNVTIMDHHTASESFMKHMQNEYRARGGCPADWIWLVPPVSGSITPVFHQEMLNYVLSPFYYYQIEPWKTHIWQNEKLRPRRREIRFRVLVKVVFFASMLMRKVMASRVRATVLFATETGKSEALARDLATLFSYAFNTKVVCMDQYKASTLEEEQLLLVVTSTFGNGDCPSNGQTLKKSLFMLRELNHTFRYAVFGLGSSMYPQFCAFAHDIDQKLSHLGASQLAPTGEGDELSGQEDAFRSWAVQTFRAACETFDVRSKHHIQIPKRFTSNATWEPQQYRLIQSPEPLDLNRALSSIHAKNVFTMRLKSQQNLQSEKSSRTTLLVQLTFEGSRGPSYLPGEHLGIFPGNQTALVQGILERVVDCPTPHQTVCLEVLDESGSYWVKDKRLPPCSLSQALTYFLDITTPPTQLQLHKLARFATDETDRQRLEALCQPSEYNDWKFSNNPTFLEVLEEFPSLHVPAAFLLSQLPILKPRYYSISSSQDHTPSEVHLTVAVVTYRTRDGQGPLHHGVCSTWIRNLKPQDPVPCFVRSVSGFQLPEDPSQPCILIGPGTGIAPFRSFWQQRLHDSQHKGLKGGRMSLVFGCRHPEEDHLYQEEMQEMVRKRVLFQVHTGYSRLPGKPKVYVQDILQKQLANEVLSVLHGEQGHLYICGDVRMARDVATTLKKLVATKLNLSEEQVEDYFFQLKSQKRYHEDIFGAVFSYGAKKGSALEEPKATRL
Description: Inhibition of mouse recombinant iNOS expressed in Escherichia coli by hemoglobin capture assay

Sequence of Nitric oxide synthase 1 (P29476 whole entry): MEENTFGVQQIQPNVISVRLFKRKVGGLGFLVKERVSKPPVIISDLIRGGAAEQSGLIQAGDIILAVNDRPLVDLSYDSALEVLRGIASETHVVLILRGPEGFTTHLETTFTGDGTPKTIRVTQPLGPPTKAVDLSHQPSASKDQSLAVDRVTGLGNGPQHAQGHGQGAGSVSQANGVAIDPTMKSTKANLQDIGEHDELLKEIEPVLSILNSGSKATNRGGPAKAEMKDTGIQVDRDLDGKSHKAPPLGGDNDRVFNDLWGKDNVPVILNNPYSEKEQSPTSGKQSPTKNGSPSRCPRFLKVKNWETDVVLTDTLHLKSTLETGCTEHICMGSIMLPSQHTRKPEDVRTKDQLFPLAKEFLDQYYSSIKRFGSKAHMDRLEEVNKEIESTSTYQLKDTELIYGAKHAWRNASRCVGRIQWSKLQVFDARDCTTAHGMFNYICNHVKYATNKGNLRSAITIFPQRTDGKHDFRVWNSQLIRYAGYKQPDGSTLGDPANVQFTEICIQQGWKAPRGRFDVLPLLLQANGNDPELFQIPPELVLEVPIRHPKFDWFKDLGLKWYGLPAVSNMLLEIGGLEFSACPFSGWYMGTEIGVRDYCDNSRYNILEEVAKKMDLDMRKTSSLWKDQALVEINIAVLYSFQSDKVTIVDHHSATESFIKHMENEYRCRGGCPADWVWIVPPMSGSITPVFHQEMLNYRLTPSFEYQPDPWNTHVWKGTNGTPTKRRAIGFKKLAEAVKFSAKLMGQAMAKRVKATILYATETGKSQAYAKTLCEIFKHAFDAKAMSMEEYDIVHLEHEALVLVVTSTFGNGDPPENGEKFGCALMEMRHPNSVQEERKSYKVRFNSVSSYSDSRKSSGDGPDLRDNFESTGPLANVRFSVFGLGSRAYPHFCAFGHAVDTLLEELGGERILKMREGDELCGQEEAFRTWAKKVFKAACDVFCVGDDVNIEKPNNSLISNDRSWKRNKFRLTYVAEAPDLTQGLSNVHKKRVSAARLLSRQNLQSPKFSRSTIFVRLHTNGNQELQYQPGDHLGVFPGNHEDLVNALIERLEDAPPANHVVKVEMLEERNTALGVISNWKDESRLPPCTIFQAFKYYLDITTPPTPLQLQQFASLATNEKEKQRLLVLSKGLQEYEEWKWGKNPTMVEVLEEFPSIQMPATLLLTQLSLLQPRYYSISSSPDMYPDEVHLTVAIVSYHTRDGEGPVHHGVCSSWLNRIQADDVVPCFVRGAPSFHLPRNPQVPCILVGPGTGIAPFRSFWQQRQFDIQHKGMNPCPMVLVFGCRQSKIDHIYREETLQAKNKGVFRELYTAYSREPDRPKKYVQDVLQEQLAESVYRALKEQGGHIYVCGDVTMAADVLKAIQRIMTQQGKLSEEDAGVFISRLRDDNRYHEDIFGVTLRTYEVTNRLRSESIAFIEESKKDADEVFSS

One may read the Ki as a measure of affinity in units of concentration, obtained from inhibition or displacement. A lower Ki goes with higher affinity. With `Cc1cc(N)nc(C[C@H]2CNC[C@H]2NCCNCc2ccc(Cl)c(Cl)c2)c1` (racemic), the Ki was found to be 0.157 µM in experiment [1], 41 µM in experiment [2] and 3.56 µM in experiment [3].
Regarding `Nc1cccc(C[C@H]2CNC[C@H]2N[C@@H]2CCN(Cc3ccccc3)C2)n1` (racemic), the Ki in experiment [1] is 2.74 µM; in experiment [2] it was 181 µM; in experiment [3], 425 µM.
In the same order, the values of `Cc1cc(N)nc(C[C@H]2CNC[C@H]2NC[C@H](C)NCc2ccc(Cl)cc2)c1` (racemic) are 0.136 µM, 40 µM and 12.2 µM.
In the same order, the values of `Cc1cc(N)nc(C[C@H]2CNC[C@H]2NCCNCc2ccc(C(F)(F)F)cc2)c1` (racemic) are 0.197 µM, 84 µM and 14.1 µM.
In the same order, the values of `Cc1cc(N)nc(C[C@H]2CNC[C@H]2NCCNCCc2ccc(F)cc2)c1` (racemic) are 0.027 µM, 18 µM and 4.6 µM.
With `Cc1cc(N)nc(C[C@H]2CNC[C@H]2N(C)CCN(C)CCc2cccc(F)c2)c1` (racemic), the results for the Ki in experiment [1], in experiment [2] and in experiment [3] were 1.21 µM, 48.9 µM and 56.6 µM, respectively.
Consider `Nc1cccc(C[C@H]2CNC[C@H]2NCCNCc2ccccc2)n1` (racemic), for which the values for the Ki in experiment [1], in experiment [2] and in experiment [3] were 1.18 µM, 1450 µM and 161 µM, respectively.
In the same order, the values of `Nc1cccc(C[C@H]2CNC[C@H]2NC[C@@H](N)Cc2ccccc2)n1` (racemic) are 2.3 µM, 1450 µM and 297 µM.
Turning to `Nc1cccc(C[C@H]2CNC[C@H]2N[C@H]2CCN(Cc3ccccc3)C2)n1` (racemic), the Ki in experiment [1] worked out at 3.34 µM; in experiment [2], 108 µM; in experiment [3], 222 µM.
For `Nc1cccc(C[C@H]2CNC[C@H]2NC[C@H](N)Cc2ccccc2)n1` (racemic), the Ki turned out to be 2.42 µM in experiment [1], 1450 µM in experiment [2] and 238 µM in experiment [3].
In the same order, the values of `Cc1cc(C[C@H]2CNC[C@H]2NCCNCCc2cccc(F)c2)cc(N)n1` (racemic) are 0.551 µM, 164 µM and 10.6 µM.
Regarding `Cc1cc(N)nc(C[C@H]2CNC[C@H]2NCCNCc2ccc(F)cc2)c1` (racemic), the results for the Ki in experiment [1], in experiment [2] and in experiment [3] were 0.144 µM, 130 µM and 7.97 µM, respectively.
In the case of `Cc1cc(N)nc(C[C@H]2CNC[C@H]2N(C)CCNCCc2cccc(F)c2)c1` (racemic), the Ki in experiment [1] came to 0.326 µM; in experiment [2], 92.4 µM; in experiment [3], 38.2 µM.
As for `Cc1cc(C[C@H]2CNC[C@H]2NCCNCc2ccc(Cl)cc2)cc(N)n1` (racemic), the figures for the inhibition constant (Ki) in experiment [1], in experiment [2] and in experiment [3] were 18.8 µM, 141 µM and 232 µM, respectively.
In the case of `CC(=O)[C@H]1CNC[C@@H]1NC(=O)[C@@H](N)CCCNC(=N)N[N+](=O)[O-]`, the values for the Ki in experiment [1], in experiment [2] and in experiment [3] were 0.087 µM, 200 µM and 5.76 µM, respectively.
Take `Cc1cccc(CNCCN[C@@H]2CNC[C@@H]2Cc2cc(C)cc(N)n2)c1` (racemic): the results for the Ki in experiment [1], in experiment [2] and in experiment [3] were 0.159 µM, 72 µM and 9.01 µM, respectively.
Regarding `Nc1cccc(C[C@H]2CNC[C@H]2N[C@H]2CCNC2)n1` (racemic), the Ki came out at 1.26 µM in experiment [1], 243 µM in experiment [2] and 174 µM in experiment [3].
In the same order, the values of `Cc1cc(N)nc(C[C@H]2CNC[C@H]2NCCNCc2ccc(Cl)cc2Cl)c1` (racemic) are 0.11 µM, 30 µM and 7.7 µM.
As for `Cc1cc(N)nc(C[C@H]2CNC[C@H]2NCCNCc2cccc(C(F)(F)F)c2)c1` (racemic), in experiment [1], the Ki was 0.206 µM.
As to `CC(=O)[C@@H]1C[C@@H](NC(=O)[C@@H](N)CCCNC(=N)N[N+](=O)[O-])CN1`, the values for the Ki in experiment [1], in experiment [2] and in experiment [3] were 0.1 µM, 128 µM and 29 µM, respectively.
`Cc1cc(N)nc(C[C@H]2CNC[C@H]2N(C)CCNCc2ccc(Cl)cc2)c1` (racemic) registered an inhibitory constant (Ki) in experiment [2] of 125 µM.
For the molecule `CN(C)CCN[C@@H]1CNC[C@@H]1Cc1cccc(N)n1` (racemic), the Ki in experiment [1] was found to be 3.33 µM; in experiment [2] it was 140 µM; in experiment [3] it was 195 µM.
As to `Nc1cccc(C[C@H]2CNC[C@H]2N[C@@H]2CCNC2)n1` (racemic), the Ki in experiment [1] came out at 1.36 µM; in experiment [2], 424 µM; in experiment [3], 200 µM.
